# “And” between values parts separate entries of the source, which are not always exact repeats. Equal values may be shown once.
# Key:
# [1] = target: T1, E. coli GluRS + E. coli tRNA^Glu (Escherichia coli, UniProt P04805); assay: Isothermal titration microcalorimetry of Glu-AMS binding to GluRS in the presence of tRNA^Glu; conditions: for Kd: Kd = 1/Kb
# T1 construct: His tag (histidine tag) (C); made in house
# Protocol: (§1) Overproduction and purification of E. coli GluRS were performed as previously described with the following modifications. A C-terminal histidine-tagged GluRS was used instead of the N-terminal tagged one. The overproduction was induced overnight at 30°C with 1 mM IPTG.
# (§2) Overproduction and purification of E. coli tRNA^Glu-enriched total tRNA was done as described. […] Saccharomyces cerevisiae tRNA^Phe, used as a negative control, was purchased from Sigma-Aldrich (cat No: R4018).
# (§3) The GluRS solution with or without tRNA was dialyzed overnight in a D-tube dialyzer (Novagen) against 2 L of dialysis buffer (50 mM HEPES-KOH, pH 7.2, 10 mM MgCl2) at 4°C with light stirring. The next morning, the dialyzed solution was recovered and the volume adjusted by adding dialysis buffer to obtain the desired concentration (typically 9 μM GluRS and 11 μM tRNA^Glu). This solution was kept on ice until use. Glu-AMS was diluted in the dialysis buffer to obtain a final concentration of 90 μM. All buffers and solutions were degased with stirring under vacuum. The microcalorimetry experiments were carried out in a VP-ITC 100 microcalorimeter (MicroCal, GE Healthcare) using deionized water as an internal reference for all assays. VPViewer ITC 2000 and Origin v 5.0 softwares (Microcal Software, Inc) were used for data collection and analysis, respectively.
# To measure the thermodynamic parameters of the interaction between Glu-AMS and GluRS, in the presence and in the absence of tRNA, a solution containing 9 μM GluRS with or without a stoichiometric excess of tRNA^Glu or S. cerevisiae tRNA^Phe (Table 1) was placed in the sample cell of the microcalorimeter. The following conditions were used for all tests: reference power was set at 12 μcal/s and stirring at 300 rpm, the “high” feedback mode and “No check Temp”, “Fast Equil” and “Auto” ITC equilibration options were selected. […] After a first injection of 1 μL over 2 s, a series of 39 injections (7.4 μL over 14.8 s) with 240 s between injections was performed. Injections of Glu-AMS in GluRS alone, GluRS•tRNA^Glu or GluRS•tRNA^Phe, were performed at 30°C (303 K), and done in duplicate. Injections of Glu-AMS in GluRS were also performed at 20°C and 37°C (293 and 310 K): 14 injections (20 μL over 40 s) followed the first injection of 1 μL. Each temperature was tested in duplicate, and in triplicate at 37°C.
# (§4) The following nomenclature was used to describe the interaction at equilibrium between Glu-AMS and either GluRS or a GluRS•tRNA complex: GluRS•Glu-AMS↔GluRS+[…] Kd=[GluRS]×[Glu-AMS]/[GluRS•Glu-AMS] 1/Kd=Kb (binding constant, sometimes referred to as Ka).
# [2] = target: T2, E. coli GluRS + S. cerevisiae tRNA^Phe (Escherichia coli, UniProt P04805); assay: Isothermal titration microcalorimetry of Glu-AMS binding to GluRS in the presence of non-cognate tRNA^Phe; conditions: for Kd: Kd (dissociation constant), Kd = 1/Kb
# T2 construct: His tag (histidine tag) (C); made in house
# T2 sequence (P04805 whole entry): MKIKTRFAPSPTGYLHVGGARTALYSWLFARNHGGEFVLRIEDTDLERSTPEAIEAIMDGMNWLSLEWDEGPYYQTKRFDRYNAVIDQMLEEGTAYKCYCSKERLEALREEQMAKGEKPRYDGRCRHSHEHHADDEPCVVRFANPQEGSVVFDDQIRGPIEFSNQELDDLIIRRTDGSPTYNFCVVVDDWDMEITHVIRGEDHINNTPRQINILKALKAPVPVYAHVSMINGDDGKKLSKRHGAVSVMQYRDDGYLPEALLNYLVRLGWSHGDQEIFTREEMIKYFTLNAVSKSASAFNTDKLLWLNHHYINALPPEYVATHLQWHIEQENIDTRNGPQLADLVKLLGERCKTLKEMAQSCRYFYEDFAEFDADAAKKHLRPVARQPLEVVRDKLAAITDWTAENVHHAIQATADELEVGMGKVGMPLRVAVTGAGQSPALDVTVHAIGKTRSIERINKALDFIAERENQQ
# Protocol: as §1, §2, §3
# To measure the thermodynamic parameters of the interaction between Glu-AMS and GluRS, in the presence and in the absence of tRNA, a solution containing 9 μM GluRS with or without a stoichiometric excess of tRNA^Glu or S. cerevisiae tRNA^Phe (Table 1) was placed in the sample cell of the microcalorimeter. The following conditions were used for all tests: reference power was set at 12 μcal/s and stirring at 300 rpm, the “high” feedback mode and “No check Temp”, “Fast Equil” and “Auto” ITC equilibration options were selected. The 90 μM Glu-AMS solution was loaded in the injection syringe. After a first injection of 1 μL over 2 s, a series of 39 injections (7.4 μL over 14.8 s) with 240 s between injections was performed. Injections of Glu-AMS in GluRS alone, GluRS•tRNA^Glu or GluRS•tRNA^Phe, were performed at 30°C (303 K), and done in duplicate. Injections of Glu-AMS in GluRS were also performed at 20°C and 37°C (293 and 310 K): 14 injections (20 μL over 40 s) followed the first injection of 1 μL. Each temperature was tested in duplicate, and in triplicate at 37°C.
# as §4
# [3] = test system: Escherichia coli glutamyl-tRNA synthetase (GluRS); parameters: method as in PMID 15895686; conditions: competitive inhibitor; cited from earlier work
# murine hepatic GluRS = test system: murine hepatic GluRS; parameters: method as in PMID 15895686; conditions: cited from earlier work
# [4] = single ITC run, tRNA^Glu 5.3 µM, 303 K, [ligand] 45 µM, [GluRS] 2.636 µM
# [5] = single ITC run, tRNA^Glu 10.6 µM, 303 K, [ligand] 90 µM, [GluRS] 5.792 µM
# [6] = with E. coli tRNA^Glu, 30°C, weighted mean of ITC runs
# [7] = single ITC run, tRNA^Phe 11.23 µM, 303 K, [ligand] 90 µM, [GluRS] 2.198 µM
# [8] = single ITC run, tRNA^Phe 11.23 µM, 303 K, [ligand] 90 µM, [GluRS] 2.434 µM
# [9] = with S. cerevisiae tRNA^Phe, 30°C, weighted mean of ITC runs
# T1 sequence (P04805 whole entry): as above
smiles,measurement,setting,value
"Nc1ncnc2c1ncn2[C@@H]1O[C@H](COS(=O)(=O)NC(=O)[C@@H](N)CCC(=O)O)[C@@H](O)[C@H]1O [Glu-AMS, 5’-O-[N-(L-glutamyl)sulfamoyl]adenosine]",Kd,"[1]; K d aa-AMP aaRS, in the presence of tRNA^Glu",7 nM
same,Kd,"[1]; Kd (dissociation constant), single ITC run, tRNA^Glu 5.3 µM, 303 K, [ligand] 45 µM, [GluRS] 2.636 µM",5.49 ± 1.35 nM
same,Kd,"[1]; Kd (dissociation constant), single ITC run, tRNA^Glu 10.6 µM, 303 K, [ligand] 90 µM, [GluRS] 5.792 µM",8.96 ± 2.26 nM
same,-TΔSb,[1]; [4],-2908 ± 33
same,n (stoichiometry coefficient),[1]; [4],1.004 ± 0.006
same,ΔGb (reaction energy),[1]; [4],-11.452 kcal/mol
same,ΔHb (reaction enthalpy),[1]; [4],-8.537 ± 0.097 kcal/mol
same,ΔSb (reaction entropy),[1]; [4],9.596 ± 0.11 cal/mol·K
same,-TΔSb,[1]; [5],-3548 ± 38
same,n (stoichiometry coefficient),[1]; [5],1.000 ± 0.006
same,ΔGb (reaction energy),[1]; [5],-11.156 kcal/mol
same,ΔHb (reaction enthalpy),[1]; [5],-7.61 ± 0.081 kcal/mol
same,ΔSb (reaction entropy),[1]; [5],11.71 ± 0.12 cal/mol·K
same,-TΔSb,[1]; [6],-3.186 ± 0.025 kcal/mol
same,n (stoichiometry coefficient),[1]; [6],1.0018 ± 0.0041
same,ΔHb (reaction enthalpy),[1]; [6],-7.99 ± 0.062 kcal/mol
same,ΔSb (reaction entropy),[1]; [6],10.5 cal/mol·K and 10.52 ± 0.08 cal/mol·K
same,fold decrease of the dissociation constant Kd in the presence of tRNA^Glu,[1]; with versus without tRNA^Glu,50 fold
same,free energy of binding difference observed in the presence of tRNA^Glu,"[1]; with versus without tRNA^Glu, 30°C",about 2.2 kcal/mol
same,Kd,[2]; [7],478 ± 86 nM
same,Kd,[2]; [8],987 ± 190 nM
same,-TΔSb,[2]; [7],-3875 ± 242
same,n (stoichiometry coefficient),[2]; [7],0.9925 ± 0.048
same,ΔGb (reaction energy),[2]; [7],-8.762 kcal/mol
same,ΔHb (reaction enthalpy),[2]; [7],-4.882 ± 0.305 kcal/mol
same,ΔSb (reaction entropy),[2]; [7],12.79 ± 0.80 cal/mol·K
same,-TΔSb,[2]; [8],-1658 ± 172
same,n (stoichiometry coefficient),[2]; [8],0.9835 ± 0.0809
same,ΔGb (reaction energy),[2]; [8],-8.326 kcal/mol
same,ΔHb (reaction enthalpy),[2]; [8],-6.657 ± 0.689 kcal/mol
same,ΔSb (reaction entropy),[2]; [8],5.472 ± 0.57 cal/mol·K
same,affinity of GluRS for Glu-AMS in the presence of the non-cognate tRNA^Phe,[2]; versus absence of tRNA,not altered
same,ΔGb (reaction energy),"[2]; with S. cerevisiae tRNA^Phe, 30°C, simple average, ΔGb = -RT Ln Kb",-8.544 ± 0.309 kcal/mol
same,-TΔSb,[2]; [9],-2.398 ± 0.14 kcal/mol
same,n (stoichiometry coefficient),[2]; [9],0.9902 ± 0.0410
same,ΔHb (reaction enthalpy),[2]; [9],-5.173 ± 0.279 kcal/mol
same,ΔSb (reaction entropy),[2]; [9],7.92 ± 0.46 cal/mol·K
same,Ki,[3],2.8 nM
same,times less efficient against murine hepatic GluRS than against E. coli GluRS,murine hepatic GluRS,25 times

# Source: paper PMC4393105, “tRNA^Glu Increases the Affinity of Glutamyl-tRNA Synthetase for Its Inhibitor Glutamyl-Sulfamoyl-Adenosine, an Analogue of the Aminoacylation Reaction Intermediate Glutamyl-AMP: Mechanistic and Evolutionary Implications” (PLoS ONE, 2015)
